According to ChEMBL document CHEMBL4619738, “Ansamycin derivatives from the marine-derived Streptomyces sp. SCSGAA 0027 and their cytotoxic and antiviral activities” (Bioorg Med Chem Lett, 2020):
≈ marks a conversion by molar mass, not a printed value.

Legend:
[1] = target: Heat shock protein HSP 90-alpha (Homo sapiens, UniProt P07900); test: Inhibition of HSP90alpha (unknown origin)
MCF7 [2] = test: cells; details: Homo sapiens
A549 = test: Cytotoxicity against human A549 cells assessed as reduction in cell viability; assay type: functional, cell-based
Shewanella oneidensis = test: Antibacterial activity against Shewanella oneidensis MR-1; assay type: functional
K562 = test: Cytotoxicity against human K562 cells assessed as reduction in cell viability; assay type: functional, cell-based
[3] = system: Bacillus amyloliquefaciens; test: Antibacterial activity against Bacillus amyloliquefaciens; assay type: functional
HL-60 [4] = test: cells; details: Homo sapiens
Description: (§1) Cytotoxicity against human HL60 cells assessed as reduction in cell viability

Staphylococcus aureus = test: Antibacterial activity against Staphylococcus aureus; assay type: functional
MCF7 [5] = system: MCF7
HL-60 [6] = system: HL-60
Description: as §1

Human alphaherpesvirus 1 = test: Antiviral activity against HSV-1 by plaque reduction assay; assay type: functional, organism-based
[7] = Cytotoxicity against African green monkey Vero cells assessed as reduction in cell viability; assay type: cell-based; details: chlorocebus sabaeus
[8] = Homo sapiens, K562, read-out: IC50

**Q.** Which results are given for `CO[C@H]1/C=C\C=C(/C)C(=O)NC2=CC(=O)C(O)=C(C[C@@H](C)C[C@H](OC)[C@H](O)[C@@H](C)/C=C(\C)[C@@H]1OC(N)=O)C2=O`?
**A.** IC50 ([1]; read-out: IC50): 4.1 µM; IC50 (MCF7 [2]): 9.9 µM; IC50 (A549): 7.7 µM; MIC (Shewanella oneidensis): > 200 µg/mL; IC50 (K562; [8]): 4.8 µM; MIC [3]: > 200 µg/mL; IC50 (HL-60 [4]): 36 µM; MIC (Staphylococcus aureus): > 200 µg/mL

**Q.** What does the source list for `CO[C@H]1C[C@H](C)Cc2cc(cc(O)c2O)NC(=O)/C(C)=C/CC[C@H](OC)[C@@H](OC(N)=O)/C(C)=C/[C@H](C)[C@H]1O`?
**A.** IC50 ([1]; read-out: IC50): 0.03 µM; IC50 (A549): > 50 µM; IC50 (MCF7 [5]): Not Active; MIC (Shewanella oneidensis): > 200 µg/mL; IC50 (K562; k562): Not Active; MIC [3]: > 200 µg/mL; IC50 (HL-60 [6]): Not Active; MIC (Staphylococcus aureus): > 200 µg/mL

**Q.** What does the source list for `COc1c(O)cc2c3c1C[C@@H](C)C[C@H](OC)[C@H](O3)[C@@H](C)/C=C(\C)[C@H](OC(N)=O)[C@@H](OC)/C=C/C=C(\C)C(=O)N2`?
**A.** IC50 [1]: Not Active; IC50 (MCF7 [2]): 36 µM; IC50 (A549): 37 µM; MIC (Shewanella oneidensis): > 200 µg/mL; IC50 (K562; [8]): 43 µM; MIC [3]: > 200 µg/mL; IC50 (HL-60 [4]): 35 µM; MIC (Staphylococcus aureus): > 200 µg/mL

**Q.** What does the source list for `CC[C@H]1/C=C/[C@@H]([C@H](C)O)OC(=O)/C(C)=C/CC(=O)Nc2cc(O)cc3c2O[C@@]2(CC1)CC(=O)[C@@H](C)[C@H]3O2`?
**A.** IC50 (Human alphaherpesvirus 1): 19 µM; CC50 [7]: 510 µM; MNTC ([7]; read-out: MNCC): 160 µM

**Q.** For `COc1c(O)cc2c3c1C[C@@H](C)C[C@H](OC)[C@H](O3)[C@@H](C)/C=C(\C)[C@H](OC(N)=O)[C@@H](OC)CC/C=C(\C)C(=O)N2`, which IC50 [1] is on record?
**A.** Not Active

**Q.** And the IC50 (MCF7 [2])?
**A.** 70 µM

**Q.** What about the IC50 (A549) of the same molecule?
**A.** 65 µM

**Q.** And the MIC (Shewanella oneidensis)?
**A.** > 200 µg/mL

**Q.** What about the IC50 (K562; [8]) of the same molecule?
**A.** 43 µM

**Q.** What about the MIC [3] of the same molecule?
**A.** > 200 µg/mL

**Q.** And the IC50 (HL-60 [4])?
**A.** 86 µM

**Q.** And the MIC (Staphylococcus aureus)?
**A.** > 200 µg/mL

**Q.** Which IC50 ([1]; read-out: IC50) does the source give for `COc1c(O)cc2c3c1C[C@@H](C)C[C@H](OC)[C@H](O3)[C@@H](C)/C=C(\C)[C@H](OC(N)=O)[C@@H](OC)C[C@@H](O)/C=C(\C)C(=O)N2` here?
**A.** 96 µM

**Q.** What about the IC50 (MCF7 [2]) of the same molecule?
**A.** > 100 µM

**Q.** And the IC50 (A549)?
**A.** > 100 µM

**Q.** What about the MIC (Shewanella oneidensis) of the same molecule?
**A.** > 200 µg/mL

**Q.** What about the IC50 (K562; [8]) of the same molecule?
**A.** > 100 µM

**Q.** And the MIC [3]?
**A.** 100 µg/mL (≈ 178 µM)

**Q.** What about the IC50 (HL-60 [6]) of the same molecule?
**A.** Not Active

**Q.** What about the MIC (Staphylococcus aureus) of the same molecule?
**A.** 50 µg/mL (≈ 88.9 µM)

**Q.** For `COc1c(O)cc2c3c1C[C@@H](C)C[C@H](OC)[C@H](O3)[C@@H](C)/C=C(\C)[C@H](OC(N)=O)[C@@H](OC)/C=C\C=C(\C)C(=O)N2`, which IC50 [1] is on record?
**A.** Not Active

**Q.** What about the IC50 (MCF7 [2]) of the same molecule?
**A.** 35 µM

**Q.** What about the IC50 (A549) of the same molecule?
**A.** 13 µM

**Q.** What about the MIC (Shewanella oneidensis) of the same molecule?
**A.** > 200 µg/mL

**Q.** And the IC50 (K562; [8])?
**A.** 18 µM

**Q.** And the MIC [3]?
**A.** > 200 µg/mL

**Q.** What about the IC50 (HL-60 [4]) of the same molecule?
**A.** 48 µM

**Q.** And the MIC (Staphylococcus aureus)?
**A.** > 200 µg/mL

**Q.** With `COc1c(O)cc2c3c1C[C@@H](C)C[C@H](OC)[C@H](O3)[C@@H](C)/C=C(\C)[C@H](OC(N)=O)[C@@H](OC)/C=C\C=C(/C)C(=O)N2` as the molecule, how does the IC50 [1] read?
**A.** Not Active

**Q.** What about the IC50 (MCF7 [2]) of the same molecule?
**A.** 20 µM

**Q.** What about the IC50 (A549) of the same molecule?
**A.** 16 µM

**Q.** And the MIC (Shewanella oneidensis)?
**A.** > 200 µg/mL

**Q.** And the IC50 (K562; [8])?
**A.** 14 µM

**Q.** What about the MIC [3] of the same molecule?
**A.** > 200 µg/mL

**Q.** What about the IC50 (HL-60 [4]) of the same molecule?
**A.** 27 µM

**Q.** What about the MIC (Staphylococcus aureus) of the same molecule?
**A.** > 200 µg/mL

**Q.** What does the source list for `COC1=C2C[C@@H](C)C[C@H](OC)[C@H](O)[C@@H](C)/C=C(\C)[C@H](OC(N)=O)[C@@H](OC)/C=C\C=C(/C)C(=O)NC(=CC1=O)C2=O` [GELDANAMYCIN]?
**A.** MIC (Shewanella oneidensis): > 200 µg/mL; MIC [3]: > 200 µg/mL; MIC (Staphylococcus aureus): > 200 µg/mL

**Q.** For `CO[C@H]1/C=C\C=C(/C)C(=O)NC2=CC(=O)C=C(C2=O)[C@H](OC)[C@@H](C)C[C@H](OC)[C@H](O)[C@@H](C)/C=C(\C)[C@@H]1OC(N)=O` [HERBIMYCIN C], which IC50 ([1]; read-out: IC50) is on record?
**A.** 31 µM

**Q.** What about the IC50 (MCF7 [2]) of the same molecule?
**A.** 20 µM

**Q.** What about the IC50 (A549) of the same molecule?
**A.** 19 µM

**Q.** And the MIC (Shewanella oneidensis)?
**A.** > 200 µg/mL

**Q.** And the IC50 (K562; [8])?
**A.** 20 µM

**Q.** What about the MIC [3] of the same molecule?
**A.** 100 µg/mL (≈ 178 µM)

**Q.** What about the IC50 (HL-60 [4]) of the same molecule?
**A.** 56 µM

**Q.** And the MIC (Staphylococcus aureus)?
**A.** 50 µg/mL (≈ 89.2 µM)

**Q.** Which IC50 [1] does the source give for `CC(=O)O[C@H]1C(=O)[C@@]2(C)[C@H]([C@H](OC(=O)c3ccccc3)[C@]3(O)C[C@H](OC(=O)[C@H](O)[C@@H](NC(=O)c4ccccc4)c4ccccc4)C(C)=C1C3(C)C)[C@]1(OC(C)=O)CO[C@@H]1C[C@@H]2O` [PACLITAXEL] here?
**A.** Not Active

**Q.** Which results are given for `COc1c(O)cc2cc1C[C@@H](C)C[C@H](OC)[C@H](O)[C@@H](C)/C=C(\C)[C@H](OC(N)=O)[C@@H](OC)CC/C=C(\C)C(=O)N2` [REBLASTATIN]?
**A.** IC50 ([1]; read-out: IC50): 0.005 µM; IC50 (A549): 0.7 µM; IC50 (MCF7 [5]): Not Active; MIC (Shewanella oneidensis): > 200 µg/mL; MIC [3]: > 200 µg/mL; IC50 (HL-60 [6]): Not Active; MIC (Staphylococcus aureus): > 200 µg/mL
